A short description of this data set: photoluminescence quantum yield (fraction); solvent given as SMILES.

Take `O=c1c2ccccc2oc2cc(N3c4ccccc4C4(c5ccccc5Oc5ccccc54)c4ccccc43)ccc12`: the photoluminescence quantum yield (in Cc1ccccc1) was 0.77.
For `CC1=CC(C)=[N+]2C1=C(C1=C3C(C)=CC(C)=[N+]3[B-](F)(F)n3c(C)cc(C)c31)c1c(C)cc(C)n1[B-]2(F)F`, for the setting “in ClC(Cl)Cl”, the photoluminescence quantum yield worked out at 0.31.
Under “in O”, `COc1ccc(-c2cc(N3CCCCC3)c(C#N)c3c2-c2cccc4cccc-3c24)cc1` displayed a photoluminescence quantum yield of 0.36.
`COc1cc(OC)c2c(c1)c1cc3oc(=O)cc(C)c3cc1c1cc(OC)cc(OC)c12` displayed a photoluminescence quantum yield (in ClC(Cl)Cl) of 0.1.
For `Cc1cc(C)c(B2c3cc(C(C)(C)C)cc4c5ccccc5c5c6ccccc6c6cc(C(C)(C)C)cc2c6c5c34)c(C)c1`, under “in C1CCCCC1”, the photoluminescence quantum yield amounted to 0.7.
Molecule `COc1ccc(-c2cc3c(s2)-c2sc(-c4ccc(OC)cc4)cc2P(c2ccccc2)(c2ccccc2)=[O+][B-]3(c2c(C)cc(C)cc2C)c2c(C)cc(C)cc2C)cc1` displayed a photoluminescence quantum yield (in C1CCOC1) of 0.52.
On to `CCOC(=O)COc1ccc(/C=C/c2cc(C)c3n2[B-](F)(F)[N+]2=C(c4[nH]c(C)cc4C)c4ccccc4C2=C3)cc1`, for which the photoluminescence quantum yield by setting is: (in C1CCOC1) 0.34; (in CC#N) 0.3; (in CCCCCC) 0.73; (in CO) 0.08; (in Cc1ccccc1) 0.69; (in ClCCl) 0.75.
Regarding `C(#Cc1cccc2nsnc12)c1ccc(-n2c3ccccc3c3ccccc32)cc1`, for the setting “in ClCCl”, the photoluminescence quantum yield was found to be 0.54.
In turn, `F[Si-](F)(c1ccccc1)(c1c2ccccc2cc2ccccc12)c1c2ccccc2cc2ccccc12` gave a photoluminescence quantum yield (in C1CCOC1) of 0.46.
The same measure, in the same setting: then `COC(=O)c1ccc(-c2ccc3c(c2)C(=O)c2cc(-c4ccc(C(=O)OC)cc4)ccc2-3)cc1`, with 0.02.
The molecule `CN(C)c1ccc(-c2ccc(-c3cc(-c4ccccc4)c(-c4ccccc4)c(-c4ccccc4)c3-c3ccccc3)cc2)cc1` registered a photoluminescence quantum yield (in ClC(Cl)Cl) of 0.14.
Under “in CC#N”, `F[B-]1(F)n2c(c(-c3cccs3)c3c2-c2ccccc2CC3)C=C2C(c3cccs3)=C3CCc4ccccc4C3=[N+]21` returned a photoluminescence quantum yield of 0.84.
For `CC1(C)CC(/N=C/c2ccc3ccc4cccc5ccc2c3c45)CC(C)(C)N1[O]`, the photoluminescence quantum yield runs as follows: (in C1CCCCC1) 0.11; (in CC#N) 0.01; (in CO) 0.03; (in ClC(Cl)Cl) 0.02.
Consider `CCOc1ccc(/C=C/C=C/C=C/c2ccc([N+](=O)[O-])cc2)cc1`, for which the photoluminescence quantum yield came out at 0.22 (in CC1CCCCC1), 0.017 (in CC#N), 0.5 (in Cc1ccccc1) and 0.068 (in ClCCl).
With `N#Cc1ccc(/C2=C3N=C(C(c4ccccc4)=C/3c3ccccc3)/C(c3ccc(C#N)cc3)=c3\[nH]/c(c(-c4ccccc4)c3-c3ccccc3)=C(/c3ccc(C#N)cc3)C3=N/C(=C(/c4ccc(C#N)cc4)c4[nH]c2c(-c2ccccc2)c4-c2ccccc2)C(c2ccccc2)=C3c2ccccc2)cc1`, the photoluminescence quantum yield (in ClCCl) worked out at 0.004.
The molecule `Fc1c(F)c(-n2c3ccccc3c3ccccc32)c(F)c(F)c1-c1nnc(-c2ccccc2)o1` came in with a photoluminescence quantum yield (in Cc1ccccc1) of 0.27.
For the molecule `CCn1c2ccccc2c2cc(/C=C/c3cc(/C=C/c4ccc5c(c4)c4ccccc4n5CC)[n+](CCCS(=O)(=O)[O-])c(/C=C/c4ccc5c(c4)c4ccccc4n5CC)c3)ccc21`, the photoluminescence quantum yield turned out to be 0.12 (in C1CCOC1), 0.05 (in CC#N), 0.05 (in CC(C)=O) and 0.09 (in Cc1ccccc1).
`CCCCCCCCn1c(=O)c2cc3cc4cc5c(=O)n(CCCCCCCC)c(=O)c5cc4c(-c4ccc(N(c5ccccc5)c5ccccc5)cc4)c3cc2c1=O` came in with a photoluminescence quantum yield (in ClC(Cl)Cl) of 0.04.
Take `C(=C\c1cnc2ccccc2n1)/c1cnccn1`: the photoluminescence quantum yield (in CCCCCC) stood at 0.0014; the photoluminescence quantum yield (in CCO) is 0.0012; the photoluminescence quantum yield (in CO) was 0.001; the photoluminescence quantum yield (in ClCCl) stood at 0.0014; the photoluminescence quantum yield (in c1ccccc1) was determined as 0.0015.
Regarding `CC1=CC(C)=[N+]2C1=C(c1ccccc1)c1c(C)cc(/C=C/c3ccc(O)cc3)n1[B-]2(F)F`, the photoluminescence quantum yield (in O) was 0.37.
Turning to `CCCCCCOc1cc(/C=C/c2cc(OCCCCCC)c(/C=C/c3cc(OCCCCCC)c(C=C4C(=O)c5ccccc5C4=O)cc3OCCCCCC)cc2OCCCCCC)c(OCCCCCC)cc1C=C1C(=O)c2ccccc2C1=O`, the photoluminescence quantum yield (in ClCCl) is 0.0468.
In the case of `CN(C)c1ccc(-c2c(/C=C3/C=Cc4ccccc4N3C)c(=O)c2=O)cc1`, the photoluminescence quantum yield runs as follows: (in C1CCCCC1) 0.0301; (in Cc1ccccc1) 0.0256; (in ClCCl) 0.001.
Regarding `CCn1c2ccccc2c2cc(/C=C3\C(=O)c4ccccc4S3(=O)=O)ccc21`, the photoluminescence quantum yield by setting is: (in C1CCOC1) 0.029; (in C1COCCO1) 0.025; (in CC#N) 0.023; (in CC(C)=O) 0.042; (in CCOC(C)=O) 0.039; (in CN(C)C=O) 0.033. The photoluminescence quantum yield is 0.003 (in CO); 0.083 (in CS(C)=O); 0.014 (in Cc1ccccc1); 0.04 (in ClC(Cl)Cl); 0.04 (in ClCCl).
As for `Cc1cc(C)c(C2=C3C=C(/C=C/C(=O)OC(C)(C)C)C=[N+]3[B-](F)(F)n3c2ccc3N2CCOCC2)c(C)c1`, the photoluminescence quantum yield was 0.13 (in CC#N); 0.88 (in CCCCCC); 0.15 (in CN(C)C=O); 0.21 (in CO); 0.64 (in Cc1ccccc1); 0.49 (in ClCCl).
As to `c1ccc(-c2nn(-c3ccccc3)c3nc4ccc(-n5c6ccccc6c6ccccc65)cc4cc23)cc1`, the photoluminescence quantum yield runs as follows: (in C1CCCCC1) 0.88; (in C1CCOC1) 0.81; (in CC#N) 0.72; (in CC(C)=O) 0.72; (in CCCCCl) 0.88; (in CCCCOCCCC) 0.7. The same molecule had a photoluminescence quantum yield (in CN(C)C=O) of 0.76.
With `Cc1ccc(C2C3=C(CCCC3=O)Nc3c2c(=O)oc2ccccc32)cc1` (stereo not drawn), under “in CS(C)=O”, the photoluminescence quantum yield was determined as 0.83.
`COc1ccc(C2=[N+]3C(=Nc4c(-c5ccc6ccccc6c5)cc(-c5ccc(OC)cc5)n4[B-]3(F)F)C(c3ccc4ccccc4c3)=C2)cc1`: under “in ClCCl”, the photoluminescence quantum yield came out at 0.34.
With `Cc1ccc(-c2ccc(/C=C/c3ccc(F)cc3)cn2)nc1`, the photoluminescence quantum yield (in CC#N) turned out to be 0.69.
As for `CC1(C)c2ccccc2N(c2ccc3c(c2)Oc2ccccc2P3(=O)c2ccccc2)c2ccccc21` (stereo not drawn), the photoluminescence quantum yield runs as follows: (in Cc1ccccc1) 0.37; (in O=P(c1ccccc1)(c1ccccc1)c1ccccc1Oc1ccccc1P(=O)(c1ccccc1)c1ccccc1) 0.62.
Regarding `Cc1c2ccc(=[N+]3CCCCC3)cc-2oc2cc(N3CCCCC3)ccc12`, the photoluminescence quantum yield (in ClCCl) was determined as 0.91.
In the case of `CCCC1(CCC)c2cc(-c3ccc(C(C)(C)C)cc3)ccc2-c2ccc(-c3ccc4c(c3)C(CCC)(CCC)c3cc(-c5ccc6c(c5)C(CCC)(CCC)c5cc(-c7ccc(C(C)(C)C)cc7)ccc5-6)ccc3-4)cc21`, for the setting “in C1CCCCC1”, the photoluminescence quantum yield was 0.9.
Take `CCCCCCc1ccsc1-c1cc2c3cc(-c4sccc4CCCCCC)c4nc(C(F)(F)C(F)(F)C(F)(F)F)nc5c(-c6sccc6CCCCCC)cc(c6cc(-c7sccc7CCCCCC)c7nc(C(F)(F)C(F)(F)C(F)(F)F)nc1c7c26)c3c45`: the photoluminescence quantum yield (in C1CCOC1) stood at 0.65.
For the setting “in ClCCl”, `CN(C)c1ccc(C#Cc2cc3ccccc3oc2=O)cc1` gave a photoluminescence quantum yield of 0.009.
`CCCCC1(CCCC)c2cc(C#Cc3ccc(/C=C(\C)c4ccccc4)cc3)ccc2-c2ccc(C#Cc3ccc(/C=C(\C)c4ccccc4)cc3)cc21` registered a photoluminescence quantum yield (in C1CCOC1) of 0.586.
The molecule `Cc1ccc(C2=C3C=CC(Sc4ccccc4)=[N+]3[B-](F)(F)n3c(Sc4ccccc4)ccc32)cc1` registered a photoluminescence quantum yield (in C1CCOC1) of 0.82.
For the setting “in ClC(Cl)Cl”, `c1ccc(-c2nc(-c3ccccc3)c(N(c3ccccc3)c3ccccc3)[se]2)cc1` gave a photoluminescence quantum yield of 0.068.
For `COCCOCCOc1cc(C=O)c(OCCOCCOC)cc1C=O`, the photoluminescence quantum yield runs as follows: (in CC(C)(C)O) 0.12; (in CC(C)CO) 0.09; (in CC(C)O) 0.08; (in CCCCO) 0.14; (in CCCO) 0.15; (in CCO) 0.15. Further, the photoluminescence quantum yield was 0.05 (in CN(C)C=O); 0.03 (in CNC=O); 0.22 (in CO); 0.26 (in NC=O); 0.55 (in O).
In turn, `COc1ccc(-c2cc(-c3ccc(N(C)C)cc3)nc(-c3ccccc3)n2)cc1` showed a photoluminescence quantum yield (in ClC(Cl)Cl) of 0.49.
Regarding `c1ccc(Nc2nc(Nc3ccccc3)nc(Nc3ccc4c5cccc6cccc(c7cccc3c74)c65)n2)cc1`, the photoluminescence quantum yield (in C1COCCO1) is 0.52, the photoluminescence quantum yield (in CC#N) is 0.42, the photoluminescence quantum yield (in CCCCOCCCC) was 0.5 and the photoluminescence quantum yield (in CCOC(C)=O) was 0.44.
On to `CCCCCCCCCCCCC(CCCCCCCCCC)Cn1c2cc(C=C(C#N)C#N)c3cccc4c5cccc6c(C=C(C#N)C#N)cc1c(c65)c2c34` (stereo not drawn), for which the photoluminescence quantum yield turned out to be 0.13 (in C1CCCCC1), 0.151 (in CC#N), 0.138 (in Cc1ccccc1) and 0.115 (in ClCCl).
For `CCCCCCN1C(=O)c2cccc3c(-c4ccc(OC)s4)ccc(c23)C1=O`, the photoluminescence quantum yield (in ClC(Cl)Cl) was determined as 0.65.
Consider `c1ccc2c(c1)[nH]c1c3ccccc3[nH]c21`, for which the photoluminescence quantum yield (in CCCO) turned out to be 0.89.
Molecule `CC(C)(C)c1ccc2c(c1)oc1nc3oc4ccc(-n5c6ccccc6c6ccccc65)cc4c3cc12` gave a photoluminescence quantum yield (in ClC(Cl)Cl) of 0.075.
`CC1(C)c2ccccc2N(c2ccc(-c3ccc(C#N)cc3)cc2)c2ccccc21` registered a photoluminescence quantum yield (in Cc1ccccc1) of 0.178 and a photoluminescence quantum yield (in N#Cc1ccc2c(c1)c1ccccc1n2-c1cccc(-n2c3ccccc3c3ccccc32)c1) of 0.36.

Source of the values: the Deep4Chem optical property database.
